Results on 1 compound are retold here after patent US20210128736A1, “STEREOCOMPLEX OF OLIGOLACTIC ACID CONJUGATES IN MICELLES FOR IMPROVED PHYSICAL STABILITY AND ENHANCED ANTITUMOR EFFICACY” (Wisconsin Alumni Research Foundation, priority 2018, published 2021).

Data set [1] has as its system human A549 non-small lung cancer cells. In words: In vitro cytotoxicity, CellTiter-Blue Cell Viability Assay, A549. It counts as cell-based. Particulars: 72 hours incubation, micelles at 15% loading. As for the experimental part: (§1) In vitro cytotoxicity studies. […] A549 cells were seeded into a 96-well plate at a seeding density of 1,500 cells/100 μL/well and cultured in RPMI 1640 medium, or PANC-1 cells were seeded into a 96-well plate at a seeding density of 5,000 cells/100 μL/well and cultured in Dulbecco Modified Eagle Medium (DMEM), at 37° C. in 5% CO2 incubator for 24 h. […] Cells cultured with diluted PBS in medium was used as controls. Drug treated cells were placed in an incubator at 5% CO2 at 37° C. for 72 h. The medium in each well was aspirated, and 100 μL of 20% (v/v) CellTiter-Blue reagent in serum free RPMI 1640 or DMEM was added, followed by incubation at 37° C. in 5% CO2 atmosphere for 1.5 h. Fluorescence intensity was measured by a SpectraMax M2 plate reader (Molecular Devices, San Jose, Calif.) with excitation and emission at 560 and 590 nm, respectively. The half maximal inhibitory drug concentration (IC50) was determined by using GraphPad Prism version 5.00 for Windows (GraphPad Software, La Jolla, Calif.).

For data set [2], the system named is PANC-1 pancreatic cancer cells. In words: In vitro cytotoxicity, CellTiter-Blue Cell Viability Assay, PANC-1. It counts as cell-based. The conditions noted are these: Homo sapiens; PANC-1 cells, 72 hours incubation; micelles at 15% loading. As for the experimental part:
as §1

Data set [3] deals with A549 non-small cell lung cancer xenograft. In words: In vivo antitumor efficacy in A549 xenograft model. The arrangement: species or system female athymic nude mice. The conditions noted are these: 3-weekly I.V. injections at 10 mg/kg equivalent of GEM; micelles 5% loading; vs saline control.
Method: In vivo antitumor efficacy studies. […] 6-8 week-old female athymic nude mice (20-25 g each) were acquired from laboratory animal resources at School of Medicine and Public Health, University of Wisconsin-Madison. Mice were housed in ventilated cages with free access to water and food and acclimated for 1 week prior tumor cell injection. A549 cells (2×10^6 cells in 100 μL of serum-free RPMI 1640 medium) were harvested from sub-confluent cultures after trypsinization and were injected subcutaneously into the right flank of each mouse. […] Drugs were administered via tail vein for 3 weekly injections. Body weight and tumor volume were monitored over the course of study. Tumor volume was calculated using the formula: V=(a×b^2)/2, where V is tumor volume, a is tumor length, b is tumor width.
The conditions of data set [4]: mice, reported; cited from earlier work.
The test system of a further data set is subcutaneous tumors. Particulars: cited from earlier work.
Data set [5] is described as follows: Stability in rat plasma at 37° C. (RP-HPLC). The conditions noted are these: 24 hours.

As to `Nc1ccn([C@@H]2O[C@H](CO)[C@@H](O)C2(F)F)c(=O)n1` [GEM, Gemcitabine], the IC50 is about 1.1 µM in data set [1] and about 9.2 µM in data set [2]. Also, in data set [3], the “antitumor efficacy (tumor growth, relative tumor volume)” value is “not effective”. In addition, in data set [4], the “maximum tolerated doses (MTD)” value was 100 mg/kg. Also, in the data set on subcutaneous tumors (mice bearing subcutaneous tumors), the “dose required to inhibit tumor growth” value is listed as 100 mg/kg. Further, the “efficacy against subcutaneous tumors” value in the data set on subcutaneous tumors (mice, GEM at 10 mg/kg) was “generally ineffective”. In data set [5], the “intact GEM detected after incubation in plasma” value was “less than 50%”.
